Reference: patent US9320727B2, “Combinations of SGLT 2 inhibitors and antihypertensive drugs” (TAISHO PHARMACEUTICAL CO., LTD, priority 2012, dated 2016)

Experiments:
Assay type in all cases: in vivo, rat
Goto-Kakizaki (GK) rats = assay: Diabetic animal model (GK rats): systolic blood pressure by tail cuff method, crossover; conditions: GK rats on high-glucose diet; compound A in mixed diet, valsartan single oral dose, alone or combined; 1, 2, 4, 6 hours after administration; FIG. 4
Text: The effect of compound A combined with angiotensin II receptor blocker in rats as a diabetic model. Goto-Kakizaki (GK) rats as model animals spontaneously manifesting non-obese diabetes mellitus (Japan SLC, Inc.) were fed a high-glucose diet containing compound A. During the feeding of compound A in a mixed diet, a vehicle or an angiotensin II receptor blocker was orally administered in a single dose and the effects of the two drugs, administered either independently or in combination, on blood pressure were studied by the crossover method. The systolic blood pressure was measured by the tail cuff method using a non-heated, noninvasive hemodynamometer immediately before the oral administration of the angiotensin II receptor blocker and 1, 2, 4, and 6 hours after such administration.

T2DN rats [1] = assay: Diabetic nephropathy model (T2DN rats): renocortical (interstitial) fibrosis area by image analyzer; conditions: compound A 0.02% in mixed diet, lisinopril 10 mg/kg/day in drinking water, alone or combined, three months, FIG. 3
Protocol: (§1) The effect of compound A combined with ACE inhibitor in rats as a diabetic nephropathy model.
(§2) The test was conducted with rats (T2DN rats) that were an inbred line of Goto-Kakizaki (GK) rats with a manifestation of type II diabetes mellitus and which were in an advanced stage of kidney tissue injury resulting from a long-continued diabetic condition. Rats in groups each consisting of 8-9 animals (aged 14 months on average) were given repeated doses of compound A (0.02% in mixed diet) and the ACE inhibitor lisinopril (10 mg/kg/day in drinking water), either independently or in combination, for three months. A group of rats receiving only a diet containing no compound A were pathologic controls. Before and one month after the dosing, blood pressure measurement was conducted by the tail cuff method using a noninvasive automatic hemodynamometer. After the repeated dosing, the kidneys were removed from each rat under anesthetization with ketamine and thiobutabarbital and fixed in 10% neutral buffered formalin. Thin slices of the kidneys were prepared and subjected to Masson's trichrome stain. After masking the tissue specimens, thirty glomeruli were extracted from each specimen.
To evaluate the morbidity of interstitial fibrosis, the fibrotic area percentage of 10 regions per specimen was calculated on an image analyzer.

T2DN rats [2] = assay: Diabetic nephropathy model (T2DN rats): blood pressure by tail cuff method; conditions: compound A 0.02% in mixed diet, lisinopril 10 mg/kg/day in drinking water, alone or combined, before and one month after dosing, FIG. 1
Protocol: as §1, §2
Blood pressure was expressed by the mean blood pressure as calculated from systolic and diastolic pressures ((systolic pressure−diastolic pressure)/3+diastolic pressure)).

T2DN rats [3] = assay: Diabetic nephropathy model (T2DN rats): glomerular injury score, Masson's trichrome stain; conditions: compound A 0.02% in mixed diet, lisinopril 10 mg/kg/day in drinking water, alone or combined, three months, grade 0-4, 30 glomeruli, FIG. 2
Protocol: as §1, §2

Row | SMILES | action for lowering the systolic blood pressure (Goto-Kakizaki (GK) rats) | renocortical fibrosis score (area of kidney interstitial fibrosis) (T2DN rats [1]) | blood pressure lowering action (mean blood pressure) (T2DN rats [2]) | glomerular injury score (improvement of scores of glomerular damage) (T2DN rats [3])
1 | CCCCC(=O)N(Cc1ccc(-c2ccccc2-c2nnn[nH]2)cc1)[C@H](C(=O)O)C(C)C [Valsartan, valsartan] | a certain level of action for lowering the systolic blood pressure |  |  | 
2 | NCCCC[C@H](N[C@@H](CCc1ccccc1)C(=O)O)C(=O)N1CCC[C@H]1C(=O)O [Lisinopril, lisinopril] |  | no improvement in the area of interstitial fibrosis | a certain level of blood pressure lowering action | effective in improving scores of glomerular damage
3 | CCOc1ccc(Cc2cc([C@@H]3S[C@H](CO)[C@@H](O)[C@H](O)[C@H]3O)c(OC)cc2C)cc1 [Compound A, (1S)-1,5-anhydro-1-[3-(4-ethoxybenzyl)-6-methoxy-4-methylphenyl]-1-thio-D-glucitol] | little blood lowering action | effective in ameliorating kidney tissue damage | little blood pressure lowering action | effective in improving scores of glomerular damage
